Data set [1] has as its system Rattus norvegicus. Nature of the data set: AUC in Sprague-Dawley rat assessed as ibuprofen release level at 10 mg/kg, po by LC-MS/MS analysis. The settings on record: in vivo.
In data set [2] the test system is Rattus norvegicus. Nature of the data set: Tmax in Sprague-Dawley rat assessed as ibuprofen release level at 10 mg/kg, po by LC-MS/MS analysis. As to conditions: in vivo.
A short description of data set [3]: Half life in rat liver homogenate at 0.5 mM after 24 hrs by HPLC analysis. Type of data set: ADME, tissue-based.
The target of data set [4] is T1, Solute carrier family 15 member 1 (Homo sapiens, UniProt P46059).
T1 sequence (P46059 whole entry): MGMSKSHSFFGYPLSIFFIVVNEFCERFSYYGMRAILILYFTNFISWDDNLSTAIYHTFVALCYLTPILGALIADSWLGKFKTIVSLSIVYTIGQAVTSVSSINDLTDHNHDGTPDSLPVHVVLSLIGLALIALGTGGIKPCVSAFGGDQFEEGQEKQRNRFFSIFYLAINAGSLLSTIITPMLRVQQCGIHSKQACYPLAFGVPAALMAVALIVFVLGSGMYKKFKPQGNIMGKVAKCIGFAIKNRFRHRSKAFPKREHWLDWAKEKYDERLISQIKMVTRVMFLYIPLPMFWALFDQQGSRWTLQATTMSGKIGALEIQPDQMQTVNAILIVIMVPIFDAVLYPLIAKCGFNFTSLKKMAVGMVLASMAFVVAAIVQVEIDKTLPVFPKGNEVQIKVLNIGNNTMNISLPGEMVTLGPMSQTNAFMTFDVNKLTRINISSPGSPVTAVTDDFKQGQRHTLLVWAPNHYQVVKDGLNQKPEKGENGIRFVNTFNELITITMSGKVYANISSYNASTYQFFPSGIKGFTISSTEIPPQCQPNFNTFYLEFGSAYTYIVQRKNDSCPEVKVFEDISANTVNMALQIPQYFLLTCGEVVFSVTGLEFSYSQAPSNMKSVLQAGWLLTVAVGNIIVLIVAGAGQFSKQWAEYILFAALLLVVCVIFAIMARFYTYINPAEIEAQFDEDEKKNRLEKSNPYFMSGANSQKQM
Nature of the data set: Ratio of substrate activity of FSA to compound at PepT1 in human Caco2 cells assessed as apparent permeability form apical to basolateral side at 2 mM in presence of Gly-Gln after 1 hr by HPLC analysis. As to conditions: caco-2, 1 h, 2000 µM.

Data set [5] concerns Rattus norvegicus. Put plainly: Cmax in Sprague-Dawley rat assessed as ibuprofen release level at 10 mg/kg, po by LC-MS/MS analysis. As to conditions: in vivo.
The test system of data set [6] is Rattus norvegicus. Put plainly: Relative bioavailability in Sprague-Dawley rat assessed as ibuprofen release level at 10 mg/kg, po by LC-MS/MS analysis. The settings on record: in vivo.
For data set [7], the target named is T2, PepT1 (Homo sapiens, UniProt P46059).
T2 sequence (P46059 whole entry): T1 sequence (P46059 whole entry)
Put plainly: Substrate activity at PepT1 in human Caco2 cells assessed as apparent permeability form apical to basolateral side at 2 mM in presence of Gly-Gln after 1 hr by HPLC analysis. As to conditions: Caco-2, with Gly-Gln.

Data set [8] concerns Caco-2. Put plainly: Ratio of apparent permeability of FSA to compound in human Caco2 cells from apical to basolateral side at 2 mM after 1 hr by HPLC analysis. The settings on record: caco-2, 1 h, 2000 µM.
Data set [9] in a line: Apparent permeability of the compound in human Caco2 cells from apical to basolateral side at 2 mM after 1 hr by HPLC analysis. As to conditions: Caco-2.
Data set [10] concerns the target T3, Solute carrier family 15 member 1 (Oryctolagus cuniculus, UniProt P36836).
T3 sequence (P36836 whole entry): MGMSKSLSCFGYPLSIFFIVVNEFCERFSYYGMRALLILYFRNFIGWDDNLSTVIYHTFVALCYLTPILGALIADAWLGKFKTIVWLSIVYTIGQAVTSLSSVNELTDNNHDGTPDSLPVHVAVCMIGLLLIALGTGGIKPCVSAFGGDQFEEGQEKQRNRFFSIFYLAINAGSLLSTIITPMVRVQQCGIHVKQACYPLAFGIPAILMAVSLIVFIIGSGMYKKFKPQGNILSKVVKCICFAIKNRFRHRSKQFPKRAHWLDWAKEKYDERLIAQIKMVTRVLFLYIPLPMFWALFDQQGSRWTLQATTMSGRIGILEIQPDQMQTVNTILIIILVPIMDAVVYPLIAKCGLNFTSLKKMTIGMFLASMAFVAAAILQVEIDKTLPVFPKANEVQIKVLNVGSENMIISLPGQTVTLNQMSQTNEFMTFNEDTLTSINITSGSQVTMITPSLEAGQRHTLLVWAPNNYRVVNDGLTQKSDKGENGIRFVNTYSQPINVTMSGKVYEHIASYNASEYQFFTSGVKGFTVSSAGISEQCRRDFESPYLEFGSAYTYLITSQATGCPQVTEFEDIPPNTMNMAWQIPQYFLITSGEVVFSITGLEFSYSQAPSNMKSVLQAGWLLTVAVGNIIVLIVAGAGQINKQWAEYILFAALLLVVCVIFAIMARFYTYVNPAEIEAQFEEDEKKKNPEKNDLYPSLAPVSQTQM
Put plainly: Binding affinity to rabbit PepT1 expressed in Xenopus laevis oocytes assessed as inhibition of [3H]-D-Phe-L-Gln uptake by Michaelis-Menten kinetics analysis. Type of data set: ADME, cell-based.

A short description of data set [11]: Stability of the compound in pH 5.5 buffer. Type of data set: physicochemical.
Data set [12] has as its system Rattus norvegicus. Nature of the data set: Bioavailability in Sprague-Dawley rat at 6 mg/kg, po by LC-MS/MS analysis. The settings on record: in vivo.

The values below come from ChEMBL document CHEMBL4152331, “Thiodipeptides targeting the intestinal oligopeptide transporter as a general approach to improving oral drug delivery” (Eur J Med Chem, 2018).

On to `CC(C)Cc1ccc([C@@H](C)C(=O)OC[C@H](NC(=S)[C@H](C)N)C(=O)O)cc1`, for which, in data set [1], the AUC was found to be 700 ng·h/mL. The Tmax in data set [2] amounted to 3.2 h. Also, in [3], the half-life at 500 µM is 17.9 h. The Ratio came out at 1.07 in data set [4] and 1.29 in data set [8]. Also, in data set [5], the Cmax was determined as 200 ng/mL. For the same molecule, the F in [6] is listed as 2.8%. The apparent permeability from apical to basolateral (Papp A→B) at 1 h, 2000 µM in data set [7] came out at 2.1 ×10⁻⁶ cm/s.

`C[C@H](N)C(=S)N[C@@H](COC(=O)CC1(CN)CCCCC1)C(=O)O`: the figures for the Ratio in data set [4] and in [8] were 0.69 and 0.46, respectively. Moreover, the Papp A→B at 1 h, 2000 µM in data set [7] was 0.4 ×10⁻⁶ cm/s.

In [3], `CC(C)c1cccc(C(C)C)c1OC(=O)C[C@H](NC(=S)[C@H](C)N)C(=O)O` showed a half-life at 500 µM of 7.3 h. Further, the Ratio in [4] is given as 0.89; in [8], 0.41. In addition, the Papp A→B at 1 h, 2000 µM in data set [9] and in [7] was 0.5 ×10⁻⁶ cm/s throughout.

As to `COc1ccc2cc(CC/C(C)=N/OCCOC(=O)C[C@H](NC(=S)[C@H](C)N)C(=O)O)ccc2c1`, the Ki in [10] (read-out: Ki) turned out to be 80 µM. The Ratio in data set [4] was found to be 1.3; in [8], 1.94. In addition, the Papp A→B at 1 h, 2000 µM was 9.7 ×10⁻⁶ cm/s in data set [9] and 4.4 ×10⁻⁶ cm/s in [7].

For `C[C@H](N)C(=S)N[C@@H](CC(=O)OCCOCn1cnc2c(=O)[nH]c(N)nc21)C(=O)O`, the Stability result in data set [11] is recorded as “Unstable”. For the same molecule, the Ki entry in [10] was “Nd(Unstable)”.

Turning to `C[C@H](NC(=O)[C@@H](N)Cc1ccccc1)C(N)=S`, the Papp A→B at 1 h, 2000 µM in data set [7] is 1.9 ×10⁻⁶ cm/s.

For the molecule `CC(=O)Oc1ccccc1C(=O)OCCOCCOCCOC(=O)C[C@H](NC(=S)[C@H](C)N)C(=O)O`, in data set [11], the Stability result was “Unstable”. In addition, the Ki entry in data set [10] is on record as “Nd(Unstable)”.

For `CC(C)Cc1ccc(C(C)C(=O)O)cc1` (configuration not stated) [IBUPROFEN], the F in [12] was determined as 100%.
